Results from US12091425B2 (AMGEN INC., priority 2016, dated 2024).
Where “and” joins values, the source holds several entries; their conditions need not be identical. Identical values can stand only once. Like-named read-outs stand apart in the source and are kept apart here.

For C=CC[C@@H](O)[C@H](C)S(=O)(=O)NC(=O)c1ccc2c(c1)N(C[C@@H]1CC[C@H]1[C@@H](O)/C=C/CCC)C[C@@]1(CCCc3cc(Cl)ccc31)CO2, the ring closure, isolated yield (the molecule shown is the open-chain precursor, rcm bond, 16-membered ring, Hoveyda-Grubbs II (50 mol%), AcOH, 8.6 mM, 60.0 °C) was 24.5%.

CC(C)(C)[Si](C)(C)OC[C@H]1CC=CC[C@H](O)[C@@H]2CC[C@H]2CN2C[C@@]3(CCCc4cc(Cl)ccc43)COc3ccc(cc32)C(=O)NS1(=O)=O showed a ring closure, isolated yield (from C=CC[C@H](CO[Si](C)(C)C(C)(C)C)S(=O)(=O)NC(=O)c1ccc2c(c1)N(C[C@@H]1CC[C@H]1[C@@H](O)CC=C)C[C@@]1(CCCc3cc(Cl)ccc31)CO2, rcm bond, 16-membered ring, Hoveyda-Grubbs II (20 mol%), toluene, 0.72 mM, 106.0 °C, 2.0 h) of 85.9%.

With COCCN1[C@@H](C)CC=C[C@H](O)[C@@H]2CC[C@H]2CN2C[C@@]3(CCCc4cc(Cl)ccc43)COc3ccc(cc32)C(=O)NS1(=O)=O the ring closure, isolated yield (from C=CC[C@H](C)N(CCOC)S(=O)(=O)NC(=O)c1ccc2c(c1)N(C[C@@H]1CC[C@H]1[C@@H](O)C=C)C[C@@]1(CCCc3cc(Cl)ccc31)CO2, rcm bond, 16-membered ring, Hoveyda-Grubbs II, 1,2-dichloroethane, 2.0 mM, 60.0 °C, 18.0 h) was 37%.

C[C@@H]1CC/C=C/[C@H](O)[C@]2(C)CC[C@H]2CN2C[C@@]3(CCCc4cc(Cl)ccc43)COc3ccc(cc32)C(=O)NS1(=O)=O showed a ring closure, isolated yield (from C=CCC[C@@H](C)S(=O)(=O)NC(=O)c1ccc2c(c1)N(C[C@@H]1CC[C@@]1(C)[C@@H](O)C=C)C[C@@]1(CCCc3cc(Cl)ccc31)CO2, rcm bond, 16-membered ring, Hoveyda-Grubbs II, DCM, 2.0 mM, […]) of 12.4%.

With C[C@@H]1[C@@H](C)C/C=C/[C@@H](O)[C@@H]2CC[C@H]2CN2C[C@@]3(CCCc4cc(Cl)ccc43)COc3ccc(cc32)C(=O)NS1(=O)=O the ring closure, isolated yield (from C=CC[C@H](C)[C@@H](C)S(=O)(=O)NC(=O)c1ccc2c(c1)N(C[C@@H]1CC[C@H]1[C@H](O)/C=C/CCC)C[C@@]1(CCCc3cc(Cl)ccc31)CO2, rcm bond, 16-membered ring, Hoveyda-Grubbs II (10 mol%), DCE, 1.87 mM, 80.0 °C) was 12.9%.

Work on C[C@@H]1[C@H]2/C=C/[C@H](O)[C@@H]3CC[C@H]3CN3C[C@@]4(CCCc5cc(Cl)ccc54)COc4ccc(cc43)C(=O)NS(=O)(=O)[C@H]1CCC2 yielded a ring closure, isolated yield (from C[C@H]1[C@H](/C=C/[C@H](O)[C@@H]2CC[C@H]2CN2C[C@@]3(CCCc4cc(Cl)ccc43)COc3ccc(C(=O)O)cc32)CCC[C@H]1S(N)(=O)=O, amide bond, 16-membered ring, EDC/DMAP, DCM, 2.0 mM) of 11.6%.

For C[C@H]1CC=C[C@H](O)[C@@H]2CC[C@H]2CN2C[C@@]3(CCCc4cc(Cl)ccc43)COc3ccc(cc32)C(=O)NS(=O)(=O)N1CC1CC1, the ring closure, isolated yield (from C=CC[C@H](C)N(CC1CC1)S(=O)(=O)NC(=O)c1ccc2c(c1)N(C[C@@H]1CC[C@H]1[C@@H](O)C=C)C[C@@]1(CCCc3cc(Cl)ccc31)CO2, rcm bond, 16-membered ring, Hoveyda-Grubbs II, 1,2-dichloroethane, 1.5 mM, 50.0 °C, 24.0 h) was 45%.

For C[C@]12CC[C@@H]1CN1C[C@@]3(CCCc4cc(Cl)ccc43)COc3ccc(cc31)C(=O)NS(=O)(=O)CC/C=C/C[C@@H]2O, the ring closure, isolated yield (from C=CCCS(=O)(=O)NC(=O)c1ccc2c(c1)N(C[C@@H]1CC[C@@]1(C)[C@@H](O)CC=C)C[C@@]1(CCCc3cc(Cl)ccc31)CO2, rcm bond, 16-membered ring, 1.5 h) was 4.76%.

In the case of C[C@]12CC[C@H]1CN1C[C@@]3(CCCc4cc(Cl)ccc43)COc3ccc(cc31)C(=O)NS(=O)(=O)CC/C=C\C[C@@H]2O, the ring closure, isolated yield (from C=CCCS(=O)(=O)NC(=O)c1ccc2c(c1)N(C[C@H]1CC[C@@]1(C)[C@@H](O)CC=C)C[C@@]1(CCCc3cc(Cl)ccc31)CO2, rcm bond, 16-membered ring, Hoveyda-Grubbs II, toluene, 1.0 mM, 1.5 h) is reported as 83%.

For O=C1NS(=O)(=O)C2CC(/C=C/[C@H](O)[C@@H]3CC[C@H]3CN3C[C@@]4(CCCc5cc(Cl)ccc54)COc4ccc1cc43)C2, the ring closure, isolated yield (from NS(=O)(=O)C1CC(/C=C/[C@H](O)[C@@H]2CC[C@H]2CN2C[C@@]3(CCCc4cc(Cl)ccc43)COc3ccc(C(=O)O)cc32)C1, amide bond, 16-membered ring, EDC/DMAP, DCM, 2.0 mM) was 3.3% and 22%.

Work on O=C1NS(=O)(=O)C[C@H]2C[C@H]2/C=C/[C@H](O)[C@@H]2CC[C@H]2CN2C[C@@]3(CCCc4cc(Cl)ccc43)COc3ccc1cc32 (mixture of isomers) yielded a ring closure, isolated yield (from C=C[C@H](O)[C@@H]1CC[C@H]1CN1C[C@@]2(CCCc3cc(Cl)ccc32)COc2ccc(C(=O)NS(=O)(=O)C[C@@H]3C[C@@H]3/C=C/C)cc21, rcm bond, 16-membered ring, Hoveyda-Grubbs II, DCE, 1.99 mM, 60.0 °C, 6.0 h) of 29%.

Compound CN1CC=CCS(=O)(=O)NC(=O)c2ccc3c(c2)N(C[C@@H]2CC[C@H]2C1=O)C[C@@]1(CCCc2cc(Cl)ccc21)CO3 (single isomer, unassigned) has a ring closure, isolated yield (from C=CCN(C)C(=O)[C@@H]1CC[C@H]1CN1C[C@@]2(CCCc3cc(Cl)ccc32)COc2ccc(C(=O)NS(=O)(=O)CC=C)cc21, rcm bond, 16-membered ring, Hoveyda-Grubbs II, toluene, 1.0 mM, 1.5 h) of 48%.

For COC[C@@]1(C)CC=C[C@H](O)[C@@H]2CC[C@H]2CN2C[C@@]3(CCCc4cc(Cl)ccc43)COc3ccc(cc32)C(=O)NS1(=O)=O (single isomer, unassigned), the ring closure, isolated yield (from COC[C@@](C)(C/C=C/[C@H](O)[C@@H]1CC[C@H]1CN1C[C@@]2(CCCc3cc(Cl)ccc32)COc2ccc(C(=O)O)cc21)S(N)(=O)=O, amide bond, 15-membered ring) was 8.8% and 7.5%.

For COc1ccc(CN2CC=CCS(=O)(=O)NC(=O)c3ccc4c(c3)N(C[C@@H]3CC[C@H]3C2=O)C[C@@]2(CCCc3cc(Cl)ccc32)CO4)cc1 (single isomer, unassigned), the ring closure, isolated yield (from C=CCN(Cc1ccc(OC)cc1)C(=O)[C@@H]1CC[C@H]1CN1C[C@@]2(CCCc3cc(Cl)ccc32)COc2ccc(C(=O)NS(=O)(=O)CC=C)cc21, rcm bond, 16-membered ring, Hoveyda-Grubbs II, toluene, 1.0 mM, 110.0 °C, 1.5 h) was 51%.

In the case of C[C@H]1CC=CC[C@H](O)[C@@H]2CC[C@H]2CN2C[C@@]3(CCCc4cc(Cl)ccc43)COc3ccc(cc32)C(=O)NS(=O)(=O)[C@H]1C (single isomer, unassigned), the ring closure, isolated yield (from C=CC[C@H](C)[C@H](C)S(=O)(=O)NC(=O)c1ccc2c(c1)N(C[C@@H]1CC[C@H]1[C@@H](O)CC=C)C[C@@]1(CCCc3cc(Cl)ccc31)CO2, rcm bond, 17-membered ring, Hoveyda-Grubbs II (10 mol%), DCM, 1.6 mM, 45.0 °C) is reported as 25%.

Compound C[C@H]1CS(=O)(=O)NC(=O)c2ccc3c(c2)N(C[C@@H]2CC[C@H]2[C@@H](O)C=C[C@H]1CO[Si](c1ccccc1)(c1ccccc1)C(C)(C)C)C[C@@]1(CCCc2cc(Cl)ccc21)CO3 (single isomer, unassigned) has a ring closure, isolated yield (from C[C@@H](CS(N)(=O)=O)[C@@H](/C=C/[C@H](O)[C@@H]1CC[C@H]1CN1C[C@@]2(CCCc3cc(Cl)ccc32)COc2ccc(C(=O)O)cc21)CO[Si](c1ccccc1)(c1ccccc1)C(C)(C)C, amide bond, 16-membered ring, EDC/DMAP, DCM, 2.0 mM, 16.0 h, 3 steps) of 10.8%.

O=C1NS(=O)(=O)CC2CC2C=C[C@H](O)[C@@H]2CC[C@H]2CN2C[C@@]3(CCCc4cc(Cl)ccc43)COc3ccc1cc32 (single isomer, unassigned) showed a ring closure, isolated yield (from C=C[C@H](O)[C@@H]1CC[C@H]1CN1C[C@@]2(CCCc3cc(Cl)ccc32)COc2ccc(C(=O)NS(=O)(=O)CC3CC3/C=C/C)cc21, rcm bond, 16-membered ring, Hoveyda-Grubbs II, DCE, 2.0 mM, 60.0 °C, 6.0 h) of 12%.

O=C1NS(=O)(=O)[C@H]2CCC[C@H](C=C[C@H](O)[C@@H]3CC[C@H]3CN3C[C@@]4(CCCc5cc(Cl)ccc54)COc4ccc1cc43)C2 (single isomer, unassigned) gave a ring closure, isolated yield (from NS(=O)(=O)[C@H]1CCC[C@H](/C=C/[C@H](O)[C@@H]2CC[C@H]2CN2C[C@@]3(CCCc4cc(Cl)ccc43)COc3ccc(C(=O)O)cc32)C1, amide bond, 16-membered ring, EDC/DMAP, DCM, 2.0 mM, 64.0 h) of 20%.

In the case of “(1S,3′R,6′R,7′S,8′E,12′R)-12′-((2S)-2-((tert-butyl(diphenyl)silyl)oxy)propyl)-6-chloro-7′-hydroxy-3,4-dihydro-2h,15′h-spiro[naphthalene-1,22′-[20]oxa[13]thia[1,14]diazatetracyclo[14.7.2.0^3,6.0^19,24]pentacosa[8,16,18,24]tetraen]-15′-one 13′,13′-dioxide or (1S,3′R,6′R,7′S,8′E,12′S)-12′-((2S)-2-((tert-butyl(diphenyl)silyl)oxy)propyl)-6-chloro-7′-hydroxy-3,4-dihydro-2h,15′h-spiro[naphthalene-1,22′-[20]oxa[13]thia[1,14]diazatetracyclo[14.7.2.0^3,6.0^19,24]pentacosa[8,16,18,24]tetraen]-15′-one 13′,13′-dioxide”, the ring closure, isolated yield (rcm bond, 16-membered ring, Hoveyda-Grubbs II, DCM, 2.7 mM, 45.0 °C) is reported as 32%.

Compound “(1S,3′R,6′R,7′S,8′E,12′R)-12′-((2S)-2-((tert-butyl(diphenyl)silyl)oxy)propyl)-6-chloro-7′-hydroxy-3,4-dihydro-2h,15′h-spiro[naphthalene-1,22′-[20]oxa[13]thia[1,14]diazatetracyclo[14.7.2.0^3,6.0^19,24]pentacosa[8,16,18,24]tetraen]-15′-one 13′,13′-dioxide] or (1S,3′R,6′R,7′S,8′E,12′S)-12′-((2S)-2-((tert-butyl(diphenyl)silyl)oxy)propyl)-6-chloro-7′-hydroxy-3,4-dihydro-2h,15′h-spiro[naphthalene-1,22′-[20]oxa[13]thia[1,14]diazatetracyclo[14.7.2.0^3,6.0^19,24]pentacosa[8,16,18,24]tetraen]-15′-one 13′,13′-dioxide” has a ring closure, isolated yield (rcm bond, 16-membered ring, Hoveyda-Grubbs II (20 mol%), DCM, 1.5 mM, 45.0 °C) of 27%.

For “(1S,3′R,6′R,7′S,8′E,12′S)-12′-((2R)-2-((tert-butyl(diphenyl)silyl)oxy)propyl)-6-chloro-7′-hydroxy-3,4-dihydro-2H,15′H-spiro[naphthalene-1,22′-[20]oxa[13]thia[1,14]diazatetracyclo[14.7.2.0^3,6.0^19,24]pentacosa[8,16,18,24]tetraen]-15′-one 13′,13′-dioxide or (1S,3′R,6′R,7′S,8′E,12′R)-12′-((2R)-2-((tert-butyl(diphenyl)silyl)oxy)propyl)-6-chloro-7′-hydroxy-3,4-dihydro-2H,15′H-spiro[naphthalene-1,22′-[20]oxa[13]thia[1,14]diazatetracyclo[14.7.2.0^3,6.0^19,24]pentacosa[8,16,18,24]tetraen]-15′-one 13′,13′-dioxide”, the ring closure, isolated yield (rcm bond, 16-membered ring, Hoveyda-Grubbs II, DCM, 1.5 mM, 45.0 °C) was 20%.
